Measured values from ChEMBL document CHEMBL5729064, “Benzofuran, benzothiophene, and indole analogs that inhibit the formation of tau oligomers and their method of use” (2022).

The compounds below were run against Microtubule-associated protein tau (Homo sapiens, UniProt P10636) (assay: AlphaLisa Assay: Tau target (equal mixture of each construct at 300 nM) was prepared in buffer (Tris-HCl pH 7.4) and was incubated in 96-well plates at room temperature for 4 hours with vehicle control (DMSO) and a dose range of a compound of the disclosure (0.098 uM-50 uM). AlphaLisa acceptor beads & donor beads with ligands to the epitope tags (Perkin Elmer) were diluted (final 20 ug/mL per bead) in bead buffer (25 mM HEPES pH 7.4, 100 mM NaCl, 0.1% Tween-20), added to the wells and incubated 1 hour at room temperature. The positive control (non-incubated target) & blank (no tau) were prepared and mixed with beads in bead buffer and the plate was read immediately using the EnVision plate reader (Perkin Elmer).).
Chain of Microtubule-associated protein tau (P10636 whole entry): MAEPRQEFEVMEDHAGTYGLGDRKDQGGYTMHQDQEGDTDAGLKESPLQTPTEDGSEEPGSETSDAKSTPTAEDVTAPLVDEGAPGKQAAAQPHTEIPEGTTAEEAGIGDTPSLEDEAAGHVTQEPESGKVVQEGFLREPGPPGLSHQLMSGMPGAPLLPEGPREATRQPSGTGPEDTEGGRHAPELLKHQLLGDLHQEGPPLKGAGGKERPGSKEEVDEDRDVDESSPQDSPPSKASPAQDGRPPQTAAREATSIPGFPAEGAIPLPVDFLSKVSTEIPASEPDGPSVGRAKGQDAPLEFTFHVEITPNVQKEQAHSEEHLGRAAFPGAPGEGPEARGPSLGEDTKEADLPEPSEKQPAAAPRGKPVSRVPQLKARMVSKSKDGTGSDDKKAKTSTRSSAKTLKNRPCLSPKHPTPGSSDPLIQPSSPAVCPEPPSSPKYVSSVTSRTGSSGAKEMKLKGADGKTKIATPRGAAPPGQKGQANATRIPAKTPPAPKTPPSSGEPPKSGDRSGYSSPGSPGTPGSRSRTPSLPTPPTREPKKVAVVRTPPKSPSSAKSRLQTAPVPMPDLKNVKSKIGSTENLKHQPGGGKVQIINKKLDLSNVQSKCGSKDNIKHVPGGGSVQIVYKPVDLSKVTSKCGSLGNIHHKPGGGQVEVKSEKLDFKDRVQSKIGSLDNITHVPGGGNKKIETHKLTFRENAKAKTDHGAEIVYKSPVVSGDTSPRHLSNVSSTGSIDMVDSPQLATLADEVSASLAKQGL
For Cc1ccc(C(C)(O)CCc2oc3ccc(Br)cc3c2-c2ccc(C)o2)cc1 (stereo unspecified), the IC50 was 1.93 µM. With COc1cc(-c2ccc3oc(CCC(C)=O)c(-c4ccc(C)o4)c3c2)ccn1 the IC50 was 0.1 µM. For COc1ccc(-c2ccc3oc(CCC(C)=O)c(-c4ccc(C)o4)c3c2)cn1, the IC50 was 1.27 µM. With CC(=O)CCc1oc2ccc(-c3cccnc3)cc2c1-c1ccc(C)o1 the IC50 was 7.55 µM. Cc1ccc(-c2c(CCc3nc4ccccc4[nH]3)oc3ccc(Br)cc23)o1 showed an IC50 of 2.06 µM. With COc1cccc(-c2ccc3oc(CCC(C)=O)c(-c4ccc(C)o4)c3c2)c1 the IC50 was 3.03 µM. For CC(=O)CCc1oc2ccc(-c3cccc(O)c3)cc2c1-c1ccc(C)o1, the IC50 was 1.39 µM. COc1cc(-c2ccc3c(-c4ccc(C)o4)c(CCC(C)=O)oc3c2)ccn1 showed an IC50 of 1.57 µM. In the case of Cc1ccc(-c2c(CCC(C)(C)O)oc3ccc(Br)cc23)o1, the IC50 is reported as 0.1 µM. Work on CC(=O)CCc1oc2cc(-c3cccnc3)ccc2c1-c1ccc(C)o1 yielded an IC50 of 4.02 µM. In the case of CC(=O)CCc1oc2ccc(-c3ccncc3)cc2c1-c1ccc(C)o1, the IC50 is reported as 6.35 µM.
